For data set [1], the target named is T1, 5'-nucleotidase (Homo sapiens, UniProt P21589). Kind of data set: Inhibition of CD73 in human PBMC using AMP as substrate preincubated for 60 mins followed by substrate addition and measured after 2.5 hrs by PiColorLock gold reagent based colorimetric assay. In kind it is tissue-based.
Data set [2] deals with T2, Ectonucleoside triphosphate diphosphohydrolase 3 (Homo sapiens, UniProt O75355).
T2 sequence (O75355 whole entry): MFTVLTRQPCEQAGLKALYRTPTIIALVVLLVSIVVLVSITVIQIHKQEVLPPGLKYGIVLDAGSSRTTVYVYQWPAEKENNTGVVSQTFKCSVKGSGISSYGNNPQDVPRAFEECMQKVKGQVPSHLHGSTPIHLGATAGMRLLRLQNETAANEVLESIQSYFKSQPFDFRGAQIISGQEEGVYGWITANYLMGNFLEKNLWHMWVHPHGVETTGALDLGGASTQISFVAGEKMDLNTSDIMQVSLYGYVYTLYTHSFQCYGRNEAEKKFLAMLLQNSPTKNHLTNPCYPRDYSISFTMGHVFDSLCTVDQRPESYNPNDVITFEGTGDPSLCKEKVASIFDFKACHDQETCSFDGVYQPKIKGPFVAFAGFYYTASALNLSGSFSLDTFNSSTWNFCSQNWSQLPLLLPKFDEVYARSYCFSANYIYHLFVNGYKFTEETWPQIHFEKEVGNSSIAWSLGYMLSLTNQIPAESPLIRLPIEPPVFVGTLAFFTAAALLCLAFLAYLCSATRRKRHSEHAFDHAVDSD
Kind of data set: Inhibition of NTPDase 3 (unknown origin) expressed in CHO cells using ATP as substrate preincubated for 1 hr followed by substrate addition and measured after 50 mins by PiColorLock gold reagent based colorimetric assay. In kind it is cell-based.

Data set [3] is described as follows: Chemical stability of the compound in acidic condition. Type of data set: physicochemical.
The target of data set [4] is T1, 5'-nucleotidase. Kind of data set: Inhibition of CD73 in human CD8-positive T cells using AMP as substrate preincubated for 60 mins followed by substrate addition and measured after 2.5 hrs by PiColorLock gold reagent based colorimetric assay. Type of data set: cell-based, CD8-positive T cell.
The target in data set [5] is T1, 5'-nucleotidase. Kind of data set: Inhibition of human CD73 expressed in CHO cells using AMP as substrate preincubated for 60 mins followed by substrate addition and measured after 60 mins by PiColorLock gold reagent based colorimetric assay. Type of data set: cell-based.
The nature of data set [6]: Chemical stability of the compound in basic condition. Type of data set: physicochemical.
For data set [7], the target named is T1, 5'-nucleotidase. Kind of data set: Inhibition of soluble human CD73.
In data set [8] the target is T3, Cytochrome P450 1A2 (Homo sapiens, UniProt P05177).
T3 sequence (P05177 whole entry): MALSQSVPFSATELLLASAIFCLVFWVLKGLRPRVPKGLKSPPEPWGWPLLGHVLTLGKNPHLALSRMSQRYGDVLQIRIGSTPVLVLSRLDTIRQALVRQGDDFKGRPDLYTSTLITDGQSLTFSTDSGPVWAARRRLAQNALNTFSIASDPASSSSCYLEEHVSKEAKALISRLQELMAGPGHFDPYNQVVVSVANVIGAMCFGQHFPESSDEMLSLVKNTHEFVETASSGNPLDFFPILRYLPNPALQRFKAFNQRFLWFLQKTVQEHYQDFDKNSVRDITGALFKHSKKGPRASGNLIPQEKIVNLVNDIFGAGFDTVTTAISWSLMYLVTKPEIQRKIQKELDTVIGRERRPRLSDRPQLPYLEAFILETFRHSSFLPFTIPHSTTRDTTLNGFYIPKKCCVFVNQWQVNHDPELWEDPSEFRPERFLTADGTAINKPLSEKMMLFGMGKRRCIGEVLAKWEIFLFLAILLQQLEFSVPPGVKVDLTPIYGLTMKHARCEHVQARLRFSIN
The data set can be described thus: Inhibition of CYP1A2 in human liver microsomes using phenacetin as substrate incubated for 5 to 20 mins in presence of NADPH by LC-MS/MS analysis. As to conditions: time 5-20 min; read-out: INH; call rule not given here. Type of data set: ADME. (Liver microsomes are vesicles of endoplasmic reticulum, rich in cytochrome P450 enzymes.)

Data set [9] is described as follows: Half life in human at 16 mg, iv administered as single infusion for 30 to 60 mins. In kind it is ADME, organism-based. As to conditions: in vivo, time 30-60 min.
Data set [10] has as its target Cytochrome P450 2C9 (Homo sapiens, UniProt P11712). Kind of data set: Inhibition of CYP2C9 in human liver microsomes using diclofenac as substrate incubated for 5 to 20 mins in presence of NADPH by LC-MS/MS analysis. In kind it is ADME. Particulars: time 5-20 min.
Data set [11] can be described thus: Clearance in human at 16 mg, iv administered as single infusion for 30 to 60 mins. Particulars: in vivo, time 30-60 min. Type of data set: ADME, organism-based.
The target in data set [12] is T4, Cytochrome P450 3A4 (Homo sapiens, UniProt P08684). Kind of data set: Time dependent inhibition of CYP3A4 in human liver microsomes using midazolam as substrate in presence of NADPH by LC-MS/MS analysis. Type of data set: ADME.
The target of data set [13] is T5, Nuclear receptor subfamily 1 group I member 2 (Homo sapiens, UniProt O75469).
T5 sequence (O75469 whole entry): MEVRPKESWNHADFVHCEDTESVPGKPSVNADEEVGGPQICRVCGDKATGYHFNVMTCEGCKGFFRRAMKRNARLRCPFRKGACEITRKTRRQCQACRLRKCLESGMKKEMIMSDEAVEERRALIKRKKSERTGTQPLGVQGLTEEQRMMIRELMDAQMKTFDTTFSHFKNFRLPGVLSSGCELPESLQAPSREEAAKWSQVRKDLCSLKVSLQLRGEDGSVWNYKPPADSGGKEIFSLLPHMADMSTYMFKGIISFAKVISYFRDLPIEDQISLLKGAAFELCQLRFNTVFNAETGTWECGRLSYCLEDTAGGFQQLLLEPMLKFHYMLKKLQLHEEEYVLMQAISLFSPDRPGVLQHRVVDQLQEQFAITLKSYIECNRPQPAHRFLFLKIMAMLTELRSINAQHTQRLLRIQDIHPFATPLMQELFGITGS
The data set can be described thus: Activation of PXR (unknown origin) by reporter gene assay. In kind it is ADME. (In general: Reporter assays use an easily measured gene product as a stand-in for the process of interest.)

In data set [14] the target is T3, Cytochrome P450 1A2. The data set can be described thus: Induction of CYP1A2 (unknown origin) assessed as effect on CYP1A2 mRNA expression. Type of data set: ADME.
The nature of data set [15]: Half life in human at 25 mg, iv administered as single infusion for 30 to 60 mins. As to conditions: in vivo, time 30-60 min. Type of data set: ADME, organism-based.
Data set [16] addresses T4, Cytochrome P450 3A4. The data set can be described thus: Inhibition of CYP3A4 in human liver microsomes using midazolam as substrate incubated for 5 to 20 mins in presence of NADPH by LC-MS/MS analysis. Type of data set: ADME. Particulars: time 5-20 min.
A short description of data set [17]: Volume of distribution at steady state in human at 16 mg, iv administered as single infusion for 30 to 60 mins. In kind it is ADME, organism-based. Particulars: in vivo, time 30-60 min, read-out: Vdss.
The nature of data set [18]: Clearance in human at 25 mg, iv administered as single infusion for 30 to 60 mins. Particulars: in vivo, time 30-60 min. Type of data set: ADME, organism-based.
Data set [19] deals with Cytochrome P450 2D6 (Homo sapiens, UniProt P10635). The data set can be described thus: Time dependent inhibition of CYP2D6 in human liver microsomes using dextromethorphan as substrate in presence of NADPH by LC-MS/MS analysis. Type of data set: ADME.
For data set [20], the target named is Cytochrome P450 2C19 (Homo sapiens, UniProt P33261). Kind of data set: Time dependent inhibition of CYP2C19 in human liver microsomes using s-mephenytoin as substrate in presence of NADPH by LC-MS/MS analysis. In kind it is ADME.
Data set [21] deals with T4, Cytochrome P450 3A4. Kind of data set: Induction of CYP3A4 (unknown origin) assessed as effect on CYP3A4 mRNA expression. Type of data set: ADME.
Data set [22] has as its target Voltage-gated inwardly rectifying potassium channel KCNH2 (Homo sapiens, UniProt Q12809). Kind of data set: Inhibition of human ERG.

Each structure is given as a SMILES string. Where only a bound is given, the exact number is not on record here.

As usually defined, the half-life is how long it takes for the measured level to halve. A word on the clearance: it is a measure of how efficiently the substance is removed, as volume per time. High values mean a high capacity for elimination, low ones a low capacity for elimination.

T4 sequence (P08684 whole entry): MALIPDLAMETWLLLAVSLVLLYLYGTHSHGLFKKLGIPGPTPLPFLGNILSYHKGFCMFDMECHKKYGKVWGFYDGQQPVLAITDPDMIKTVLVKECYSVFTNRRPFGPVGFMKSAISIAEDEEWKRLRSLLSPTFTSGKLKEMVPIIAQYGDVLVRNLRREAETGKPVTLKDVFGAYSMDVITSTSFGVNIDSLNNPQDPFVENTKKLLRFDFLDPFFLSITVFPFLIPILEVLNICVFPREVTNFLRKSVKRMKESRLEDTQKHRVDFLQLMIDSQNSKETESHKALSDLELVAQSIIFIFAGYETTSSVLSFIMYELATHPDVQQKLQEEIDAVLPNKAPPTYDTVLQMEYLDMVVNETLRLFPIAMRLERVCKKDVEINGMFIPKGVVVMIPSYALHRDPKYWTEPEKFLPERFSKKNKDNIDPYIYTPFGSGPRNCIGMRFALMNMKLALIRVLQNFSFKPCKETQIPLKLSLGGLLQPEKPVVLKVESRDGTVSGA
T1 sequence (P21589 whole entry): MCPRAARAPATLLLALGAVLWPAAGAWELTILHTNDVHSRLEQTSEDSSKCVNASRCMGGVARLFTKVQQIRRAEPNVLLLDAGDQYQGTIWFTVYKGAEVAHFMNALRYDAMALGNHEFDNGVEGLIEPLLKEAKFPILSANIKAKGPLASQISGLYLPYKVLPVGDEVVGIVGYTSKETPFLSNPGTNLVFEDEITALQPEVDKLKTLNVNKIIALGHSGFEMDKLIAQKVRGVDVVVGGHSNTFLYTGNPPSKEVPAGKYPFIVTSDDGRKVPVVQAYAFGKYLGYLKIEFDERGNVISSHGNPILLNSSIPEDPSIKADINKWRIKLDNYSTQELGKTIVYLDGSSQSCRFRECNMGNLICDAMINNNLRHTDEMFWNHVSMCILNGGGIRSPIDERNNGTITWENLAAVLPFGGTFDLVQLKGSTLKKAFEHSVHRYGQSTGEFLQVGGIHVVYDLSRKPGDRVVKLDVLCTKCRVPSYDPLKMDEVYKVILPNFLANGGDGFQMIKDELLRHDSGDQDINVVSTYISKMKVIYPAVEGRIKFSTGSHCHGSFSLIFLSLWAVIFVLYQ
Sequence of Voltage-gated inwardly rectifying potassium channel KCNH2 (Q12809 whole entry): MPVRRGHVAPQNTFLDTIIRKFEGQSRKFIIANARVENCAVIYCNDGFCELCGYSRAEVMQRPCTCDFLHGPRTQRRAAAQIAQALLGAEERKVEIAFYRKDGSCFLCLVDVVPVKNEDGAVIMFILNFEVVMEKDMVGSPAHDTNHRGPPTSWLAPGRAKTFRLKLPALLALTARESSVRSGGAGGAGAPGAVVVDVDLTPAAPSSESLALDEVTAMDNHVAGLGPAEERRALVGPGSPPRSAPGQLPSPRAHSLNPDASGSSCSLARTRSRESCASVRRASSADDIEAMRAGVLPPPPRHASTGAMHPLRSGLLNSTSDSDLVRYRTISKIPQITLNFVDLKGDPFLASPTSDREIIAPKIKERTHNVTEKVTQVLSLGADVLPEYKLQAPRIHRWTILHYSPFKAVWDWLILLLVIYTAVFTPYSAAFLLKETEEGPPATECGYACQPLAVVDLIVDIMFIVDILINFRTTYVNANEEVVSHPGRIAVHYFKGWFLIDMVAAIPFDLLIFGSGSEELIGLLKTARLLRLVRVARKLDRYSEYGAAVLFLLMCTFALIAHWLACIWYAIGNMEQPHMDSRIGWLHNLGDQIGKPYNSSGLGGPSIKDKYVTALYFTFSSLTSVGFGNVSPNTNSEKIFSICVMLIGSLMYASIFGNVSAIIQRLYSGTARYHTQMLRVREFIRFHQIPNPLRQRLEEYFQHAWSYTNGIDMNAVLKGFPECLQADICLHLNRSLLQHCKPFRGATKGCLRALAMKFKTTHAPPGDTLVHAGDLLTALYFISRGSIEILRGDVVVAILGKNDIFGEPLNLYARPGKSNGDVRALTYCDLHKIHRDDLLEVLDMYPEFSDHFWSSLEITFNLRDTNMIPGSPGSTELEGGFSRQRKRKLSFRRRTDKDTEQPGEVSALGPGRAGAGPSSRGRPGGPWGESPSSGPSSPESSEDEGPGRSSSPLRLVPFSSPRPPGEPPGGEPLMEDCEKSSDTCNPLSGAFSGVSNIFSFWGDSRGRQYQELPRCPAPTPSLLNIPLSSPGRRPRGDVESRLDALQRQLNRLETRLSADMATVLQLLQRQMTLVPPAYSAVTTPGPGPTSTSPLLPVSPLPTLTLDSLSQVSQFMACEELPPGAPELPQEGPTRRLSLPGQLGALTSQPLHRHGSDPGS
Sequence of Cytochrome P450 2C19 (P33261 whole entry): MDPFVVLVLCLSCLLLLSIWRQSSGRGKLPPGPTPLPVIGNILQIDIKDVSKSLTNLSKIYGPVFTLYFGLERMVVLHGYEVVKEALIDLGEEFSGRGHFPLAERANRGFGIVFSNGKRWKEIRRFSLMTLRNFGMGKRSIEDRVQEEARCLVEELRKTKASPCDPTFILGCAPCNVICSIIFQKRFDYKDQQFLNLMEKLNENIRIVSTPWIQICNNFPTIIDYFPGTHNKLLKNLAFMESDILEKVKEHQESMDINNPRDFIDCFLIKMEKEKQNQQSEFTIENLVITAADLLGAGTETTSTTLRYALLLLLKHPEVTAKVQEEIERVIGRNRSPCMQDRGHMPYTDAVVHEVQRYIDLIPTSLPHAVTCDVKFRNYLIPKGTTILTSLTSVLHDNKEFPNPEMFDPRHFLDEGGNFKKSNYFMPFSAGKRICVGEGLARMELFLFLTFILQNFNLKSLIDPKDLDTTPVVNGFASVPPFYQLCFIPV
Sequence of Cytochrome P450 2C9 (P11712 whole entry, the tested form may be a part): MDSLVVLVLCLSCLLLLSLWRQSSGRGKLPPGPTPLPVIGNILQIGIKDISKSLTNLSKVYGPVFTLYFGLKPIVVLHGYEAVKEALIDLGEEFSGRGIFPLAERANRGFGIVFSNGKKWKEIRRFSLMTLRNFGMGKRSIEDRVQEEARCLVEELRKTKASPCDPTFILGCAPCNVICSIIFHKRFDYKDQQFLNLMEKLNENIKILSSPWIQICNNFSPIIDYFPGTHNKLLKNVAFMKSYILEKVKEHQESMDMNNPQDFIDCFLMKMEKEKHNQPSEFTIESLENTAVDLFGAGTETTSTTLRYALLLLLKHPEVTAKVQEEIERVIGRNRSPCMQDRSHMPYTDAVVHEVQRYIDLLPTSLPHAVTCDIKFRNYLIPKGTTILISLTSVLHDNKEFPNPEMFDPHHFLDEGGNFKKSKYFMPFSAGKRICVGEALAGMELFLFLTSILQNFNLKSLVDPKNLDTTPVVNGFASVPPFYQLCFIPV
Sequence of Cytochrome P450 2D6 (P10635 whole entry): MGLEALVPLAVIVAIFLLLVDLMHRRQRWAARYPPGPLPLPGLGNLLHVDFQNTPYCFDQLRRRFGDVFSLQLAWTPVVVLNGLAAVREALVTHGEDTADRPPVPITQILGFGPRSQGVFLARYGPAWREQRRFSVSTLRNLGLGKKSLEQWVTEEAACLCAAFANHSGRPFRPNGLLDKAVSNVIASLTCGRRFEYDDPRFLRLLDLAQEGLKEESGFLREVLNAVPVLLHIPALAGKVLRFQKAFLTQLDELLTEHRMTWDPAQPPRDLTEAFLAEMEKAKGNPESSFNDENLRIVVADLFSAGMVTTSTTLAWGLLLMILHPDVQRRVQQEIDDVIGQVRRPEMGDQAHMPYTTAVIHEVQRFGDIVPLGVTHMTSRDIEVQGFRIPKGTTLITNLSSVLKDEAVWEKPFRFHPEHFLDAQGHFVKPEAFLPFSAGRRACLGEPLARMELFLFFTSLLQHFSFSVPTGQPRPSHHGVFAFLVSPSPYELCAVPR

As to `C[C@H](Nc1cc(Cl)nc2c1cnn2[C@@H]1O[C@H](COP(=O)(O)CP(=O)(O)O)[C@@H](O)[C@H]1O)c1ccc(F)cc1`, the IC50 in data set [1] was 0.021 nM; in data set [2], above 10000 nM; in [4], 0.01 nM; in data set [5] it was 0.115 nM. Further, the Stabilty result in [3] and in data set [6] was “Stable” in each case.

`C[C@H](Nc1nc(Cl)nc2c1cnn2[C@@H]1O[C@H](COP(=O)(O)CP(=O)(O)O)[C@@H](O)[C@H]1O)c1ccccc1`: the IC50 in data set [1] was 0.0085 nM; in [2], above 10000 nM; in data set [4], 0.0027 nM; in [5], 0.045 nM; in [7] it was 0.053 nM.

With `C[C@H](Nc1cc(Cl)nc2c1cnn2[C@@H]1O[C@H](COP(=O)(O)CP(=O)(O)O)[C@@H](O)[C@H]1O)c1ccccc1F`, the IC50 in data set [8] was above 100000 nM; in data set [2], above 10000 nM; in data set [22], above 10000 nM. Moreover, the half-life in [9] is 66.6 h; in data set [15] it was 74.2 h. Further, the INH in data set [10] and in data set [16] was above 100 µM throughout. For the same compound, the figures for the clearance in data set [11] and in data set [18] were 1.12 mL/min and 1.14 mL/min, respectively. The Stabilty entry in data set [3] and in data set [6] was “Stable” throughout. The TDI result in [12], in [19] and in data set [20] was “Not Active” each time. For the same compound, the Activity entry in data set [13], in data set [14] and in data set [21] was “Not Active” in each case. Also, the Vd in [17] is 6.38 L.

The values are drawn from ChEMBL document CHEMBL4665688, “Discovery of AB680: A Potent and Selective Inhibitor of CD73” (J Med Chem, 2020).
